Broadly, the IC50 is the point on the concentration scale where inhibition reaches its midpoint.

29 molecules from patent US9822118B2, “Bicyclic heteroaryl urea, thiourea, guanidine and cyanoguanidine compounds as TrkA kinase inhibitors” (Array BioPharma Inc., priority 2012, dated 2017) can be followed below.

T1 sequence (P04629 440-796 limits assumed): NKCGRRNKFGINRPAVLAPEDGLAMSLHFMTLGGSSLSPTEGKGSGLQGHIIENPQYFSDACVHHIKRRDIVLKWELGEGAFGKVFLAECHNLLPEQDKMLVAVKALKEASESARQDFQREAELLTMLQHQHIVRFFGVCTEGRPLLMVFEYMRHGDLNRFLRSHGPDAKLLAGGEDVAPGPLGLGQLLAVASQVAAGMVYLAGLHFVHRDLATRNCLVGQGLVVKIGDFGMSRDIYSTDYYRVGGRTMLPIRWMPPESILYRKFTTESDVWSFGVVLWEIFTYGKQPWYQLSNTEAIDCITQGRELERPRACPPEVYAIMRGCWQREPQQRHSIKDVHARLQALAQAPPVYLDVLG

The assay addresses T1, recombinant human TrkA (Homo sapiens, UniProt P04629).
T1 construct: 6HIS tagged cytoplasmic domain from Invitrogen, Catalog No. PV3144; purchased Invitrogen PV3144
The assay is described as follows: TrkA LanthaScreen Eu Kinase Binding Assay. The note with it: averaged IC50; TR-FRET binding assay, 60 min at 22° C.; read-out: TrkA Enzyme IC50. The protocol:
TrkA binding activity was determined in a TrkA LanthaScreen™ Eu Kinase Binding Assay. 5 nM His-tagged recombinant human TrkA (6HIS tagged cytoplasmic domain from Invitrogen, Catalog No. PV3144) was incubated with 4 nM Alexa-Fluor® Tracer 236 (Invitrogen Cat. No. PV5592), 2 nM biotinylated anti-His (Invitrogen Cat. No. PV6090), and 2 nM europium-labeled Streptavidin (Invitrogen Cat. No. PV5899), in buffer (25 mM MOPS, pH 7.5, 5 mM MgCl2, 0.005% Triton X-100). Three fold serial dilutions of compounds of the invention in DMSO were added to a final percentage of 2% DMSO. After 60-minute incubation at 22° C., the reaction was measured using the EnVision multimode plate reader (PerkinElmer) via TR-FRET dual wavelength detection at […]. The percent of control was calculated using a ratiometric emission factor. The IC50 values were determined by fitting a four parameter model to the percent of control data.
Table A provides averaged IC50 values for compounds of the invention when tested in the assay of Example A, where A represents an averaged IC50 value <100 nM; and B represents an averaged IC50 value from 100 to 1,000 nM.
In general terms: Time-resolved FRET reads energy transfer from a long-lived donor to a nearby acceptor.
With `O=C(Nc1c(-c2ccccc2)nn2ccccc12)Nc1c2c(nn1-c1ccccc1)CCC2` [Example 38, 1-(2-phenyl-2,4,5,6-tetrahydrocyclopenta[c]pyrazol-3-yl)-3-(2-phenylpyrazolopyridin-3-yl)urea], the IC50 is < 100 nM. With `Cc1nn(-c2ccccc2)c(NC(=O)Nc2c(-c3ccccc3)nc3c(C)nccn23)c1C` [Example 8, 1-(3,4-dimethyl-1-phenyl-1H-pyrazol-5-yl)-3-(8-methyl-2-phenylimidazo[1,2-a]pyrazin-3-yl)urea], the IC50 is < 100 nM. For the molecule `CCOc1nn(-c2ccccc2)c(NC(=O)Nc2c(-c3ccccc3)nc3c(C)nccn23)c1C` [Example 2, 1-(3-ethoxy-4-methyl-1-phenyl-1H-pyrazol-5-yl)-3-(8-methyl-2-phenylimidazo[1,2-a]pyrazin-3-yl)urea], the half-maximal inhibitory concentration (IC50) is < 100 nM.

As to `O=C(Nc1c2c(nn1-c1ccccc1)CCC2)Nc1c(-c2ccccc2)nc2c(C(F)(F)F)cccn12` [Example 13, 1-(2-phenyl-2,4,5,6-tetrahydrocyclopenta[c]pyrazol-3-yl)-3-(2-phenyl-8-(trifluoromethyl)imidazo[1,2-a]pyridin-3-yl)urea], the IC50 is < 100 nM. The same measure for `CCOc1nn(-c2ccccc2)c(NC(=O)Nc2c(-c3ccccc3)nc3c(Br)cccn23)c1C` [Example 15, 1-(8-bromo-2-phenylimidazo[1,2-a]pyridin-3-yl)-3-(3-ethoxy-4-methyl-1-phenyl-1H-pyrazol-5-yl)urea]: < 100 nM; for `Cc1c(OC[C@@H](O)CO)nn(-c2ccccc2)c1NC(=O)Nc1c(-c2ccccc2)nc2c(C(F)(F)F)cccn12` [Example 29, (S)-1-(3-(2,3-dihydroxypropoxy)-4-methyl-1-phenyl-1H-pyrazol-5-yl)-3-(2-phenyl-8-(trifluoromethyl)imidazo[1,2-a]pyridin-3-yl)urea]: < 100 nM. In the case of `Cc1cccn2c(NC(=O)Nc3c4c(nn3-c3ccccc3)CCCC4)c(-c3ccccc3)nc12` [Example 19, 1-(8-methyl-2-phenylimidazo[1,2-a]pyridin-3-yl)-3-(2-phenyl-4,5,6,7-tetrahydro-2H-indazol-3-yl)urea], the IC50 was < 100 nM. The same measure for `CCOc1nn(-c2ccccc2)c(NC(=O)Nc2c(-c3cccc(F)c3)nc3c(C(F)(F)F)cccn23)c1C` [Example 32, 1-(3-ethoxy-4-methyl-1-phenyl-1H-pyrazol-5-yl)-3-(2-(3-fluorophenyl)-8-(trifluoromethyl)imidazo[1,2-a]pyridin-3-yl)urea]: 100 to 1000 nM; for `COc1ccc(-c2nc3c(C)cccn3c2NC(=O)Nc2c3c(nn2-c2ccccc2)CS(=O)(=O)C3)cc1` [Example 24, 1-(5,5-dioxido-2-phenyl-4,6-dihydro-2H-thieno[3,4-c]pyrazol-3-yl)-3-(2-(4-methoxyphenyl)-8-methylimidazo[1,2-a]pyridin-3-yl)urea]: 100 to 1000 nM. `Cc1nccn2c(NC(=O)Nc3c4c(nn3-c3ccccc3)CCC4)c(-c3ccccc3)nc12` [Example 1, 1-(8-methyl-2-phenylimidazo[1,2-a]pyrazin-3-yl)-3-(2-phenyl-2,4,5,6-tetrahydrocyclopenta[c]pyrazol-3-yl)urea]: the IC50 is < 100 nM. Consider `COc1nn(-c2ccccc2)c(NC(=O)Nc2c(-c3ccccc3)nc3c(C(F)(F)F)cccn23)c1C` [Example 22, 1-(3-methoxy-4-methyl-1-phenyl-1H-pyrazol-5-yl)-3-(2-phenyl-8-(trifluoromethyl)imidazo[1,2-a]pyridin-3-yl)urea], for which the IC50 is < 100 nM. In the case of `Cc1c(OC[C@H](O)CO)nn(-c2ccccc2)c1NC(=O)Nc1c(-c2ccccc2)nc2c(C)cccn12` [Example 10, (R)-1-(3-(2,3-dihydroxypropoxy)-4-methyl-1-phenyl-1H-pyrazol-5-yl)-3-(8-methyl-2-phenylimidazo[1,2-a]pyridin-3-yl)urea], the IC50 fell in the range of 100 to 1000 nM.

On to `CCOc1nn(-c2ccccc2)c(NC(=O)Nc2c(-c3ccc(F)cc3)nc3c(C(F)(F)F)cccn23)c1C` [Example 33, 1-(3-ethoxy-4-methyl-1-phenyl-1H-pyrazol-5-yl)-3-(2-(4-fluorophenyl)-8-(trifluoromethyl)imidazo[1,2-a]pyridin-3-yl)urea], for which the IC50 is < 100 nM. As to `Cc1c(OC[C@H](C)O)nn(-c2ccccc2)c1NC(=O)Nc1c(-c2ccccc2)nc2c(C)cccn12` [Example 11, (S)-1-(3-(2-hydroxypropoxy)-4-methyl-1-phenyl-1H-pyrazol-5-yl)-3-(8-methyl-2-phenylimidazo[1,2-a]pyridin-3-yl)urea], the IC50 lay in the range of 100 to 1000 nM. The same measure for `CCOc1nn(-c2ccccc2)c(NC(=O)Nc2c(-c3ccc(OC)cc3)nc3c(C)cccn23)c1C` [Example 23, 1-(3-ethoxy-4-methyl-1-phenyl-1H-pyrazol-5-yl)-3-(2-(4-methoxyphenyl)-8-methylimidazo[1,2-a]pyridin-3-yl)urea]: 100 to 1000 nM. With `Cn1cc(-c2nn(-c3ccccc3)c(NC(=O)Nc3c(-c4ccccc4)nc4c(C(F)(F)F)cccn34)c2Cl)cn1` [Example 34, 1-(4-chloro-1′-methyl-1-phenyl-1H,1′H-[3,4′-bipyrazol]-5-yl)-3-(2-phenyl-8-(trifluoromethyl)imidazo[1,2-a]pyridin-3-yl)urea], the IC50 was < 100 nM. As to `CCOc1nn(-c2ccccc2)c(NC(=O)Nc2c(-c3ccccc3)nc3c(Cl)cccn23)c1C` [Example 4, 1-(8-chloro-2-phenylimidazo[1,2-a]pyridin-3-yl)-3-(3-ethoxy-4-methyl-1-phenyl-1H-pyrazol-5-yl)urea], the IC50 is < 100 nM. For `Cc1cccn2c(NC(=O)Nc3c4c(nn3-c3ccccc3)CS(=O)(=O)C4)c(-c3ccccc3)nc12` [Example 17, 1-(5,5-dioxido-2-phenyl-4,6-dihydro-2H-thieno[3,4-c]pyrazol-3-yl)-3-(8-methyl-2-phenylimidazo[1,2-a]pyridin-3-yl)urea], the IC50 is < 100 nM. As to `Cc1ccc(NC(=O)Nc2c(-c3ccccc3)nc3c(C)nccn23)c(-c2ccccc2)n1` [Example 9, 1-(8-methyl-2-phenylimidazo[1,2-a]pyrazin-3-yl)-3-(6-methyl-2-phenylpyridin-3-yl)urea], the IC50 is 100 to 1000 nM. In the case of `CCOc1nn(-c2ccccc2)c(NC(=O)Nc2c(-c3ccccc3)nc3c(C(F)(F)F)cccn23)c1C` [Example 3, 1-(3-ethoxy-4-methyl-1-phenyl-1H-pyrazol-5-yl)-3-(2-phenyl-8-(trifluoromethyl)imidazo[1,2-a]pyridin-3-yl)urea], the IC50 was < 100 nM. For `Cc1cccn2c(NC(=O)Nc3c4c(nn3-c3ccccc3)COC4)c(-c3ccccc3)nc12` [Example 14, 1-(8-methyl-2-phenylimidazo[1,2-a]pyridin-3-yl)-3-(2-phenyl-4,6-dihydro-2H-furo[3,4-c]pyrazol-3-yl)urea], the IC50 was < 100 nM. `Cc1c(OCC(CO)CO)nn(-c2ccccc2)c1NC(=O)Nc1c(-c2ccccc2)nc2c(C(F)(F)F)cccn12` [Example 25, 1-(3-(3-hydroxy-2-(hydroxymethyl)propoxy)-4-methyl-1-phenyl-1H-pyrazol-5-yl)-3-(2-phenyl-8-(trifluoromethyl)imidazo[1,2-a]pyridin-3-yl)urea]: the IC50 is < 100 nM. `Cc1cccn2c(NC(=O)Nc3c4c(nn3-c3ccccc3)CCC4)c(-c3ccccc3)nc12` [Example 12, 1-(8-methyl-2-phenylimidazo[1,2-a]pyridin-3-yl)-3-(2-phenyl-2,4,5,6-tetrahydrocyclopenta[c]pyrazol-3-yl)urea]: the IC50 is < 100 nM.

Turning to `O=C(Nc1c2c(nn1-c1ccccc1)CCC2)Nc1c2ccccc2nn1-c1ccccc1` [Example 37, 1-(2-phenyl-2,4,5,6-tetrahydrocyclopenta[c]pyrazol-3-yl)-3-(2-phenyl-2H-indazol-3-yl)urea], the concentration for half-maximal inhibition (IC50) was 100 to 1000 nM. As for `CCOc1nn(-c2ccccc2)c(NC(=O)Nc2c(-c3ccccc3)nn3ccccc23)c1C` [Example 39, 1-(3-ethoxy-4-methyl-1-phenyl-1H-pyrazol-5-yl)-3-(2-phenylpyrazolo[1,5-a]pyridin-3-yl)urea], the IC50 is 100 to 1000 nM. The same measure for `O=C(Nc1c2c(nn1-c1ccccc1)CS(=O)(=O)C2)Nc1c(-c2ccccc2)nc2c(C(F)(F)F)cccn12` [Example 18, 1-(5,5-dioxido-2-phenyl-4,6-dihydro-2H-thieno[3,4-c]pyrazol-3-yl)-3-(2-phenyl-8-(trifluoromethyl)imidazo[1,2-a]pyridin-3-yl)urea]: < 100 nM; for `COc1nn(-c2ccccc2)c(NC(=O)Nc2c(-c3ccccc3)nc3c(C)cccn23)c1C` [Example 21, 1-(3-methoxy-4-methyl-1-phenyl-1H-pyrazol-5-yl)-3-(8-methyl-2-phenylimidazo[1,2-a]pyridin-3-yl)urea]: < 100 nM; for `CCOc1nn(-c2ccccc2)c(NC(=O)Nc2c(-c3ccc(OC)nc3)nc3c(C)cccn23)c1C` [Example 16, 1-(3-ethoxy-4-methyl-1-phenyl-1H-pyrazol-5-yl)-3-(2-(6-methoxypyridin-3-yl)-8-methylimidazo[1,2-a]pyridin-3-yl)urea]: 100 to 1000 nM.

In the case of `COC[C@H](O)COc1nn(-c2ccccc2)c(NC(=O)Nc2c(-c3ccccc3)nc3c(C(F)(F)F)cccn23)c1C` [Example 36, (S)-1-(3-(2-hydroxy-3-methoxypropoxy)-4-methyl-1-phenyl-1H-pyrazol-5-yl)-3-(2-phenyl-8-(trifluoromethyl)imidazo[1,2-a]pyridin-3-yl)urea], the 50% inhibitory concentration (IC50) is < 100 nM.
